Assay results taken from ChEMBL document CHEMBL3507680, “University of Dundee, Gates Library screen for HepG2 cell viability”.

Test: Human HepG2 cell viability assay in 384 well format
Type: toxicity, cell-based
Set-up: dose 125 nL, time 70.5 hour; concentration not given beside the values
Details: HepG2 cells, read-out: Inhibition

SMILES | cytotoxicity at 70.5 h
Cc1cc(NC(=O)NC(C)CO)ccc1OCC(F)(F)F (stereo not given) | -2.25%
CN(C(=O)c1ccncc1F)c1ccccc1S(C)(=O)=O | -1.8%
CN(C(=O)c1ccncc1Cl)c1ccccc1S(C)(=O)=O | 12.1%
Cc1ccc(CNc2ccc(N3CCC(CO)CC3)cn2)o1 | -2.34%
OCC1CCN(c2ccc(NCc3ccsc3)nc2)CC1 | -5.76%
Cc1cnc(C(=O)N2CCC(COCc3ccccc3)C2)cn1 (stereo not given) | -2.03%
Cc1noc(CCCC(=O)NCC(c2ccco2)N2CCCCC2)n1 (stereo not given) | -3%
CCN(CC)CCCC(C)NC(=O)c1cccnc1-n1cccn1 (stereo not given) | 3.18%
COC(=O)CN(C(=O)c1ccoc1)c1cccc(F)c1 | -8.55%
COCCCNc1cc(C(=O)N2CCOCC2)ccc1C | -17.5%
Cc1ccc(C(NC(=O)CN2CCc3c(ncn3C)C2)C2CC2)cc1 (stereo not given) | -16.3%
CC(C)c1nc2cc(NC(=O)Cn3ccc(=O)[nH]c3=O)ccc2o1 | -8.49%
CS(=O)(=O)N1CCCC(C(=O)N2CCOc3ccccc32)C1 (stereo not given) | -14.4%
CSC(C)(C)CNC(=O)NC1CCC1 | -1.66%
CC(=O)NCC(=O)NC1CCc2nccn2C1 (stereo not given) | 7.09%
CN(C)c1ncccc1NC(=O)C1CN(Cc2ccccc2)CCO1 (stereo not given) | -2.14%
CCCC(NC(=O)c1ccccc1Br)c1nnn[nH]1 (stereo not given) | -3.33%
CCS(=O)(=O)CC(=O)NC1CCc2nccn2C1 (stereo not given) | -4.08%
O=C(O)c1ccn(-c2ccccc2NS(=O)(=O)c2cccc(F)c2)n1 | 7.58%
CC(C)(C)n1cc(NC(=O)C2CN(Cc3ccccc3)CCO2)cn1 (stereo not given) | -0.308%
CCCC(NC(=O)c1ccc(OC)cc1C)c1nnn[nH]1 (stereo not given) | 8.62%
CCCC(NC(=O)c1cncc(C)c1)c1nnn[nH]1 (stereo not given) | 6.22%
CSC(C)(C)CNC(=O)NC1CCN(CC(F)F)CC1 | -1.88%
O=C(NC1CCN(c2cccc(OC(F)(F)F)c2)C1=O)C1CCC1 (stereo not given) | -2.94%

SMILES | cytotoxicity at 70.5 h
COc1ccc(C2CCCN2C(=O)NCCCn2cccn2)cc1 (stereo not given) | -11%
CCOCC(=O)NCc1cc(Br)ccc1OC(F)F | 0.394%
CC(C)N(C)CCNC(=O)N1CCN(Cc2ccon2)CC1 | -5.35%
Cc1cc(C)cc(C(=O)Nc2cccc(CN3CCCC3C(N)=O)c2)c1 (stereo not given) | 6.78%
COc1cccc(Cc2nnc(SCCS(C)(=O)=O)o2)c1 | -8.26%
Cc1cccc(NC(=O)[C@@H]2CCCN2Cc2nc(C)c(C)o2)n1 | -9.4%
c1nc(N2CCCC(Cn3cncn3)C2)c2ccsc2n1 (stereo not given) | 38.8%
O=C(C1CC1)N1CCN(C(=O)C2CC(=O)N(c3ccccc3Br)C2)CC1 (stereo not given) | 26.2%
COc1ncccc1CNC(=O)N1CCC(CNC(C)=O)CC1 | -8.01%
CCN1CCC(CNC(=O)Nc2cccnc2OC)CC1 | -6.19%
CCS(=O)(=O)c1ccc(N2CCC(NC(=O)C3CCCCC3)CC2)cc1 | 0.314%
COc1cccc(S(=O)(=O)CCN2CCN(CCO)CC2)c1 | -2.82%
Cc1ccc(C)c(NC(=O)Cc2c(C)nc3c(c2C)c(=O)[nH]n3C)c1 | 29.5%
Cc1nn(CCO)c(C)c1CNC1CCc2c(F)cccc21 (stereo not given) | 0.27%
Cn1c(C(=O)N2CCC(C(N)=O)C2)c(Cl)c2ccccc21 (stereo not given) | -5.34%
Cc1nc2c(c(C)c1CC(=O)Nc1ccccc1F)c(=O)[nH]n2C | 4.76%
CCS(=O)(=O)c1ccc(N2CCC(NC(=O)c3ccccn3)CC2)cc1 | 29%
O=C(NCCc1ccccn1)NC1CCN(c2ccccc2)C1=O (stereo not given) | 1.75%
Cc1cc(C)n(CC2CCCN2CC(=O)Nc2nncs2)n1 (stereo not given) | 30%
Cc1cnn(CC2CCCCN2CC(=O)Nc2nncs2)c1 (stereo not given) | -1.03%
Cc1cc(C)n(CC2CCCCN2CC(=O)Nc2c(C)n[nH]c2C)n1 (stereo not given) | 2.06%
CC(C)(C)S(=O)(=O)CCNC(=O)NCCCc1cccc(F)c1 | 29%
COCCS(=O)(=O)N1CCN(c2cccc(O)c2)CC1 | -2.61%
COC1CCN(C(=O)C2CC(=O)N(c3ccccc3Br)C2)CC1 (stereo not given) | -8.26%

SMILES | cytotoxicity at 70.5 h
Cc1cc(C)n(CC2CCCCN2CC(=O)Nc2nccs2)n1 (stereo not given) | -5.53%
CC(C)COCCC(=O)Nc1ccc2oc(=O)n(CCN(C)C)c2c1 | 17.6%
CN(C)CCn1c(=O)oc2ccc(NC(=O)CSc3ccccc3)cc21 | 6.5%
O=C(CCNS(=O)(=O)c1ccc(F)c(F)c1)NCc1ccoc1 | -3.45%
CCc1ccc(CNC(=O)NC2CCCc3c2cnn3CCO)s1 (stereo not given) | -2.75%
Cc1csc(CNC(=O)NC2CCCc3c2cnn3CCO)n1 (stereo not given) | -9.89%
O=C(NCC1CCCCC1)NC1CCCc2c1cnn2CCO (stereo not given) | -7.67%
CC(C)(O)CN1CCN(C(=O)c2cnn(-c3ccccc3F)c2)CC1 | -4.5%
Cc1cc(C(=O)Nc2ccc3oc(=O)n(CCN(C)C)c3c2)c(C)o1 | 9.45%
Cc1nn(C)c(C)c1C1COCCN1c1ncnc2c(C)cccc12 (stereo not given) | -6.31%
CC1COCCN1c1ncnc2sccc12 (stereo not given) | 6.87%
CC(C)(C)OC(=O)NCCc1csc(N2CCCC2)n1 | -3.27%
CCN(CC1CN(Cc2c(C)noc2C)CCO1)c1cccnn1 (stereo not given) | 12.5%
Cc1nn(C)c(C)c1C1CCCN1c1ncnc2sccc12 (stereo not given) | 3.73%
CCOc1cccc(C(=O)N(CCC#N)Cc2ccccn2)c1 | -0.366%
CCN(CC1CN(Cc2ccn(C(C)C)n2)CCO1)c1cccnn1 (stereo not given) | 1.41%
Cc1ccc(N2CCCC(NCCCS(C)(=O)=O)C2)nn1 (stereo not given) | -7.73%
Clc1cnccc1N1CCCOCC1 | -5.38%
CNC(=O)C1Cc2ccccc2CN1CCC#N (stereo not given) | 4.8%
COc1ccccc1N(C)S(=O)(=O)c1cc(C(=O)O)cs1 | -4.98%
CC(C)N1CCC(NC(=O)NC2CCOc3ccc(Br)cc32)CC1 (stereo not given) | 0.813%
Cc1ncc2c(n1)CN(Cc1cccc3c1OCCO3)CC2 | -1.1%
COCC(C)(CCO)NC(=O)Nc1cccc(F)c1C (stereo not given) | 21.4%
CC(=O)N1CCCC1c1cccc(C)c1C (stereo not given) | -4.04%

SMILES | cytotoxicity at 70.5 h
CN(CCCc1n[nH]c(N)c1C#N)C(=O)Nc1cc(Cl)cc(Cl)c1 | -11.9%
NC(=O)C1CCCCN1C(=O)c1ccc(Br)s1 (stereo not given) | -5.06%
Cc1nn(C)c(C)c1CCC(=O)Nc1nnc(C2CC2)s1 | 22.3%
CC(NC(=O)NCCNc1cccc(F)c1C#N)c1cccs1 (stereo not given) | -4.54%
CS(=O)(=O)NCC1CCCCN1C(=O)c1ccc(Br)s1 (stereo not given) | -6.12%
OC1CCN(c2ccc(CNc3nc4ccccc4o3)cc2F)CC1 | -9.97%
CC(CNC(=O)C1(c2ccc(F)cc2)CC1)CN1CCCC1=O (stereo not given) | 15.4%
OC1CCN(c2ccc(CNc3nc4ccccc4s3)cc2F)CC1 | -9.14%
NC(=O)NCC1CCCCN1C(=O)c1ccc(Br)s1 (stereo not given) | -8.99%
NC(=O)NCC1CCCCN1C(=O)c1ccc(Cl)s1 (stereo not given) | -8.02%
Cc1c(C(=O)NC2(C#N)CCSC2)nnn1-c1ccccc1Cl (stereo not given) | -5.68%
CC(NC(=O)NCCNc1cccc(F)c1C#N)c1nccs1 (stereo not given) | -2.26%
CN(C(=O)COCc1ccccc1)C1CCN(CC2CCOC2)CC1 (stereo not given) | -7.68%
CN1CCN(S(C)(=O)=O)c2ccc(F)cc21 | -11.1%
O=C(Nc1cc(C2CCOCC2)[nH]n1)c1ccc(Cl)cn1 | -1.48%
CC(C#N)CNS(=O)(=O)c1ccc(F)c(Br)c1 (stereo not given) | -7.42%
O=c1c2cccnc2cnn1CC(O)c1cccc(Cl)c1 (stereo not given) | 13.3%
N#CC1(NC(=O)c2ccn(-c3ccccc3Cl)n2)CCSC1 (stereo not given) | -10.3%
COc1ncnc(N(C)C)c1NC(=O)Cc1c[nH]c2ccc(F)cc12 | -7.3%
Cc1ccc(S(=O)(=O)NC(C)C#N)cc1Br (stereo not given) | -3.42%
COc1cc(F)c(S(=O)(=O)N2c3ncccc3NC(=O)C2C)cc1OC (stereo not given) | -5.44%
O=C(C[S+]([O-])Cc1ccc(Cl)cc1Cl)N1CCc2sccc2C1 (stereo not given) | -3.09%
O=C(Nc1cc(C2CCOCC2)[nH]n1)c1cc[nH]n1 | -4.17%
CCN(Cc1ccoc1)C(=O)c1cc(C)c(C)c(S(N)(=O)=O)c1 | -9.16%

SMILES | cytotoxicity at 70.5 h
CCc1ccc(C(=O)N(CC)Cc2ccoc2)cc1S(C)(=O)=O | -13.3%
Cc1nn(CC(C)C)c(N(C)C)c1CNCCCNS(C)(=O)=O | 31.6%
Cc1nc2ccc(C(=O)N(CCC#N)CCC#N)cc2nc1C | 11.6%
COCCOCC(=O)NC(C#N)c1cccc(Cl)c1Cl (stereo not given) | -6.94%
COCCOCC(=O)NC(C#N)c1ccccc1C (stereo not given) | -7.18%
O=C(NCCn1cccc1)C1CCCOC1 (stereo not given) | -5.7%
Cn1cc(Br)cc(NC(=O)Cc2cccs2)c1=O | 17.9%
O=C(NCCCNC(=O)C1CCC1)NCCn1cccc1 | -5.85%
O=C(NCCNC(=O)C1CCCCC1)NCCn1cccc1 | -4.89%
COc1ncc(Cl)c(NCc2ccc([S+](C)[O-])cc2)n1 (stereo not given) | -0.908%
CC1CCCN(C(=O)NCC(F)F)C1 (stereo not given) | -4.81%
COC1CCCN(C(=O)NCC(F)F)C1 (stereo not given) | -5.69%
CN(Cc1ncnn1C)c1ccnc(Cc2ccccc2)n1 | -2.06%
CCN(CC1CCOC1)C(=O)c1cc(OC)c2c(c1)OCCO2 (stereo not given) | 0.516%
CCN(CC1CCOC1)C(=O)c1cc(Cl)c2c(c1)OCO2 (stereo not given) | 26.7%
Cc1nn(CC(C)C)c(N(C)C)c1CNCCS(C)(=O)=O | 5.47%
CC(=O)N(Cc1ccsc1)c1ccccc1 | -7.44%
CN(Cc1ccccc1)CC(C)(C)NC(=O)c1cnns1 | -0.0616%
COCCOCC(=O)NC(C#N)c1c(F)cccc1Cl (stereo not given) | 20.7%
Cc1cc(C)cc(CN2CCCC2c2noc(C)n2)c1 (stereo not given) | 0.367%
CN(Cc1ccccc1)CC(C)(C)NC(=O)c1cnccn1 | -0.0333%
O=C(C1CCCN(Cc2ccccc2)C1)N1CCc2sccc2C1 (stereo not given) | 31%
COc1ccc(S(=O)(=O)NCC(N)c2ccccc2)c(C)c1 (stereo not given) | -5.68%
NC(CC1CCCC1)c1ccccc1 (stereo not given) | 0.203%
